According to paper PMC7445415 (2020):

Legend:
[1] = tested on: poly(dG-dC)2 (DNA, polymer) GC; assay: ITC, one set of sites; conditions: Na+ (sodium cacodylate, I = 0.05 M); cacodylate pH 5.0, 298 K (293 K in Experimental); n fixed 0.2; polynucleotide as nucleobases; per base
[2] = tested on: poly(dA-dT)2 (DNA, polymer) AT; assay: fluorescence titration, Scatchard fit; conditions: Na+ (sodium cacodylate, I = 0.05 M); cacodylate pH 5.0, 25 °C; 1 µM compound; n fixed 0.2; polynucleotide as nucleobases; per base
[3] = tested on: poly(A)-poly(U) (RNA, polymer) A/U; assay: ITC, one set of sites; conditions: Na+ (sodium cacodylate, I = 0.05 M); cacodylate pH 5.0, 298 K (293 K in Experimental); n fixed 0.2; polynucleotide as nucleobases; per base
[4] = tested on: poly(A)-poly(U) (RNA, polymer) A/U; assay: UV melting, 260 nm; conditions: Na+ (sodium cacodylate, I = 0.05 M); cacodylate pH 5.0; r = [NDI]/[polynucleotide] = 0.3; per base
[5] = tested on: poly(dA-dT)2 (DNA, polymer) AT; assay: UV melting, 260 nm; conditions: Na+ (sodium cacodylate, I = 0.05 M); cacodylate pH 5.0; r = [NDI]/[polynucleotide] = 0.3; per base
[6] = tested on: poly(dA-dT)2 (DNA, polymer) AT; assay: ITC, one set of sites; conditions: Na+ (sodium cacodylate, I = 0.05 M); cacodylate pH 5.0, 298 K (293 K in Experimental); n fixed 0.2; polynucleotide as nucleobases; per base
[7] = tested on: poly(dG-dC)2 (DNA, polymer) GC; assay: fluorescence titration, Scatchard fit; conditions: Na+ (sodium cacodylate, I = 0.05 M); cacodylate pH 5.0, 25 °C; 1 µM compound; n fixed 0.2; polynucleotide as nucleobases; per base
[8] = tested on: poly(A)-poly(U) (RNA, polymer) A/U; assay: fluorescence titration, Scatchard fit; conditions: Na+ (sodium cacodylate, I = 0.05 M); cacodylate pH 5.0, 25 °C; 1 µM compound; n fixed 0.2; polynucleotide as nucleobases; per base

Row | logKs [1] | logKs [2] | logKs [3] | ∆Tm [4] | ∆Tm [5] | logKs [6] | logKs [7] | logKs [8] | Compound
1 | 6.7 | 6.0 | 5.9 | +17.5 ± 0.5 °C | +21.6 ± 0.5 °C | 6.3 | 7.2 | 6.0 | C[N+](C)(C)CCCN1C(=O)c2cc(NC[C@H](N)C(=O)O)c3c4c(cc(Cl)c(c24)C1=O)C(=O)N(CCC[N+](C)(C)C)C3=O
2 | 6.5 | 6.6 | 6.7 | +30.3 ± 0.5 °C | +35.4 ± 0.5 °C | 6.4 | 6.4 | 6.2 | C[N+](C)(C)CCCN1C(=O)c2cc(NCC[N+](C)(C)C)c3c4c(cc(Cl)c(c24)C1=O)C(=O)N(CCC[N+](C)(C)C)C3=O
3 | 6.7 | 6.1 | 6.6 | +25.1 ± 0.5 °C | +28.2 ± 0.5 °C | 6.8 | 6.6 | 6.4 | C[N+](C)(C)CCCN1C(=O)c2cc(NCCCC[C@H](N)C(=O)O)c3c4c(cc(Cl)c(c24)C1=O)C(=O)N(CCC[N+](C)(C)C)C3=O
